Test results: patent US20170360791A1, “PHARMACEUTICAL COMPOSITIONS FOR INCREASING THE BIOAVAILABILITY OF POORLY SOLUBLE DRUGS” (ASTEX PHARMACEUTICALS, INC., priority 2014, published 2017)
Structures can show the parent of a compound that is named as a salt. Where two headings read alike, the source gives them in different places.

Tests used:
[1] = MP470.HCl in T/C with or without Soluplus in SIF; type: physicochemical; details: Soluplus (12.3%) added to MP470.HCl in T/C, versus control without Soluplus; SIF 37° C., 1 mg/mL MP470 (total); FIG. 4
Protocol: A sample of the formulation was mixed with SIF solution pre-warmed at 37° C. to make a 1 mg/mL MP470 (total) mix.

[2] = type: physicochemical
Protocol: The suspensions were filtered through 0.2 or 0.45 microm filters prior to HPLC analysis. Some filtrates were diluted with MeOH prior to the HPLC analysis.

`S=C(NCc1ccc2c(c1)OCO2)N1CCN(c2ncnc3c2oc2ccccc23)CC1` [MP470.HCl, amuvatinib HCl] showed an MP470 solubility enhancement [1] of ~10 fold, a solubility ([2]; Capryol 90, oil or lipid, thermodynamic from solid, solvent Capryol 90, room temperature, >24 hours, read-out: Solubility) of 100 µg/mL and a solubility ([2]; Cremophor EL, organic solvent or mixture, thermodynamic from solid, solvent Cremophor EL, room temperature, >24 hours, read-out: Solubility) of 7000 µg/mL. For the same compound, the solubility ([2]; DMF, organic solvent or mixture, thermodynamic from solid, solvent DMF, room temperature, >24 hours, read-out: Solubility) was 10000 µg/mL, the solubility ([2]; Labrafac CC, oil or lipid, thermodynamic from solid, solvent Labrafac CC, room temperature, >24 hours, read-out: Solubility) was 50 µg/mL and the solubility ([2]; Labrafil M1944CS, oil or lipid, thermodynamic from solid, solvent Labrafil M1944CS, room temperature, >24 hours, read-out: Solubility) was 300 µg/mL. The solubility ([2]; Lauroglycol 90, oil or lipid, thermodynamic from solid, solvent Lauroglycol 90, room temperature, >24 hours, read-out: Solubility) was 60 µg/mL, the solubility ([2]; Maisine 35-1, oil or lipid, thermodynamic from solid, solvent Maisine 35-1, room temperature, >24 hours, read-out: Solubility) was 1400 µg/mL and the solubility ([2]; Miglyol 812N, oil or lipid, thermodynamic from solid, solvent Miglyol 812N, room temperature, >24 hours, read-out: Solubility) was 30 µg/mL. For the same compound, the solubility ([2]; Miglyol 829, oil or lipid, thermodynamic from solid, solvent Miglyol 829, room temperature, >24 hours, read-out: Solubility) was 100 µg/mL, the solubility ([2]; Miglyol 840, oil or lipid, thermodynamic from solid, solvent Miglyol 840, room temperature, >24 hours, read-out: Solubility) was 40 µg/mL and the solubility ([2]; Peceol, oil or lipid, thermodynamic from solid, solvent Peceol, room temperature, >24 hours, read-out: Solubility) was 200 µg/mL. The solubility ([2]; Solutol HS 15, aqueous with cosolvent or surfactant or cyclodextrin, thermodynamic from solid, solvent Solutol HS 15, estimated by diluting the mixture in water 1/100 and then assaying the dilution, read-out: Solubility) was 6000 µg/mL, the solubility ([2]; TPGS, aqueous with cosolvent or surfactant or cyclodextrin, thermodynamic from solid, solvent TPGS, estimated by diluting the mixture in water 1/100 and then assaying the dilution, read-out: Solubility) was 7000 µg/mL and the solubility ([2]; benzyl acetate, organic solvent or mixture, thermodynamic from solid, solvent Benzyl acetate, room temperature, >24 hours, read-out: Solubility) was 400 µg/mL. It also gave a solubility ([2]; benzyl alcohol, organic solvent or mixture, thermodynamic from solid, solvent Benzyl alcohol, room temperature, >24 hours, read-out: Solubility) of 48000 µg/mL, a solubility ([2]; canola oil, oil or lipid, thermodynamic from solid, solvent Canola oil, room temperature, >24 hours, read-out: Solubility) of 10 µg/mL and a solubility ([2]; castor oil, oil or lipid, thermodynamic from solid, solvent Castor oil, room temperature, >24 hours, read-out: Solubility) of 200 µg/mL. The solubility ([2]; clove oil, oil or lipid, thermodynamic from solid, solvent Clove oil, room temperature, >24 hours, read-out: Solubility) was 6700 µg/mL, the solubility ([2]; corn oil, oil or lipid, thermodynamic from solid, solvent Corn oil, room temperature, >24 hours, read-out: Solubility) was 10 µg/mL and the solubility ([2]; dichloromethane, organic solvent or mixture, thermodynamic from solid, solvent Dichloromethane, room temperature, >24 hours, read-out: Solubility) was 400 µg/mL. For the same compound, the solubility ([2]; ethyl acetate, organic solvent or mixture, thermodynamic from solid, solvent Ethyl acetate, room temperature, >24 hours, read-out: Solubility) was 50 µg/mL, the solubility ([2]; peanut oil, oil or lipid, thermodynamic from solid, solvent Peanut oil, room temperature, >24 hours, read-out: Solubility) was 10 µg/mL and the solubility ([2]; sesame oil, oil or lipid, thermodynamic from solid, solvent Sesame oil, room temperature, >24 hours, read-out: Solubility) was 30 µg/mL. For the same compound, the solubility ([2]; solvent Acetic acid, room temperature, >24 hours, HCl) was 3000 µg/mL, the solubility ([2]; solvent Acetone, room temperature, >24 hours, HCl) was 200 µg/mL and the solubility ([2]; solvent DMA, room temperature, >24 hours, HCl) was 13000 µg/mL. For the same compound, the solubility ([2]; solvent DMSO, room temperature, >24 hours, HCl) was 18000 µg/mL, the solubility ([2]; solvent Glycerin, room temperature, >24 hours, HCl) was 4000 µg/mL and the solubility ([2]; solvent Labrasol, room temperature, >24 hours, HCl) was 3000 µg/mL. For the same compound, the solubility ([2]; solvent Methanol, room temperature, >24 hours, HCl) was 3000 µg/mL, the solubility ([2]; solvent NMP, room temperature, >24 hours, HCl) was 40000 to 80000 µg/mL and the solubility ([2]; solvent PEG400, room temperature, >24 hours, HCl) was 2000 µg/mL. It also gave a solubility ([2]; solvent Phosal 50 PG, room temperature, >24 hours, HCl) of 15000 µg/mL, a solubility ([2]; solvent Propylene glycol, room temperature, >24 hours, HCl) of 4000 µg/mL and a solubility ([2]; solvent Triacetin, room temperature, >24 hours, HCl) of 800 µg/mL. For the same compound, the solubility ([2]; solvent Tween 20, room temperature, >24 hours, HCl) was 17000 µg/mL, the solubility ([2]; solvent Tween 80, room temperature, >24 hours, HCl) was 4500 µg/mL and the solubility ([2]; tocopherol, oil or lipid, thermodynamic from solid, solvent Tocopherol, room temperature, >24 hours, read-out: Solubility) was 800 µg/mL.
